Measured values from a melting point compilation (Tetko et al.; mined from patent text by program, amines drawn as free bases though some values may be those of a salt).

**Q.** For `CC(C)(C)OC(=O)NCC1(CC(N)=O)CCCCC1`, which melting point is on record?
**A.** The melting point was 123 to 125 °C.

**Q.** For `c1ccc(C2NCCc3ccccc32)nc1` (racemic), which melting point is on record?
**A.** Its melting point is 124 °C.

**Q.** Which melting point does the source give for `C[C@H](CC(F)(F)F)C(=O)N1C(=O)O[C@@H](c2ccccc2)[C@H]1C` here?
**A.** The melting point was 72.5 to 73.5 °C.

**Q.** With `FC(F)(F)c1nc(Cl)c2cc(I)ccc2n1` as the compound, how does the melting point read?
**A.** The melting point was 145 to 146 °C.

**Q.** With `COc1ccc(C2=NCc3nnc(CN(C)C)n3-c3ccc(Cl)cc32)cc1` as the compound, how does the melting point read?
**A.** The melting point was 224 to 225 °C.

**Q.** With `COCCCn1c(C(=O)O)cc2c3c(c(-c4ccccc4Cl)cc21)C(=O)NC3=O` as the compound, how does the melting point read?
**A.** The melting point was 272 to 274 °C.

**Q.** With `CN(C)C(=O)Nc1ccc(NCc2ccc(Cl)cc2Cl)cc1N` as the compound, how does the melting point read?
**A.** Its melting point is 147 to 152 °C.

**Q.** With `COC(=O)c1cc2nccnc2c(Cl)c1N` as the compound, how does the melting point read?
**A.** The melting point was 182 to 184 °C.

**Q.** For `COc1ccc2nc(Cl)cc(C=CN(C)C)c2c1`, which melting point is on record?
**A.** Its melting point is 162 to 164 °C.

**Q.** For `CCc1cnc(N2CCC(c3nc4cc(-c5ccc(S(C)(=O)=O)cc5F)ccc4[nH]3)CC2)nc1`, which melting point is on record?
**A.** Its melting point is 186 to 190 °C.

**Q.** With `Nc1ccc(S(=O)(=O)CCO)cc1C(=O)O` as the compound, how does the melting point read?
**A.** Its melting point is 164 to 167 °C.

**Q.** Which melting point does the source give for `CC(=O)c1cc(C[C@H](NC(=O)c2c(Cl)cccc2Cl)C(=O)O)ccc1-c1ccccc1` here?
**A.** The melting point was 109 to 111 °C.

**Q.** For `COc1ccc2c(c1)N(C)C(=O)C2C` (stereo not given), which melting point is on record?
**A.** The melting point was 44 to 46 °C.

**Q.** For `Oc1cccc([C@H]2CCCC[C@H]2N2CCCC2)c1` (relative stereo), which melting point is on record?
**A.** The melting point was 124 to 126 °C.

**Q.** With `COc1cc(-c2cccc(Cl)c2)c2cc(C(O)(c3ccc(Cl)cc3)c3nnc(S)n3C)ccc2n1` (stereo not given) as the compound, how does the melting point read?
**A.** Its melting point is greater than 260 °C.

**Q.** For `C=CCNc1ccc(C(=O)O)cc1`, which melting point is on record?
**A.** Its melting point is 144 to 146 °C.

**Q.** With `NC(=O)c1cc(C(=O)O)c(O)c2ncc(Cc3ccc(F)cc3)cc12` as the compound, how does the melting point read?
**A.** Its melting point is 265 to 266 °C.

**Q.** With `CNc1nnc(SCc2ccccc2)s1` as the compound, how does the melting point read?
**A.** The melting point was 87 to 89 °C.

**Q.** With `Oc1c(I)cc(Br)cc1I` as the compound, how does the melting point read?
**A.** Its melting point is 122 to 124 °C.

**Q.** Which melting point does the source give for `COc1cc(Nc2c(C#N)cnc3cc(-c4ccc(C=O)cc4)sc23)c(Cl)cc1Cl` here?
**A.** The melting point was 261 to 262 °C.

**Q.** With `COc1cc2c(cc1OC)CN(C)C2` as the compound, how does the melting point read?
**A.** Its melting point is 80 °C.

**Q.** With `O=C(NCCSCc1cccc(C(F)(F)F)c1)c1c(Cl)cccc1Cl` as the compound, how does the melting point read?
**A.** Its melting point is 54 to 55 °C.

**Q.** Which melting point does the source give for `COC(=O)c1cnccc1NC(=O)C(C)CSC(C)=O` (stereo not given) here?
**A.** The melting point was 55 to 57 °C.

**Q.** With `CC(C)(CCCCCC(=O)CCCCCC(C)(C)C(=O)O)C(=O)O` as the compound, how does the melting point read?
**A.** Its melting point is 74.5 to 76 °C.

**Q.** With `O=C1NC(=O)C2(C=Cc3c2csc3Cl)N1` (stereo not given) as the compound, how does the melting point read?
**A.** The melting point was 224 to 225 °C.

**Q.** For `Cc1nn(C)c2nc3ccccc3c(Cl)c12`, which melting point is on record?
**A.** Its melting point is 127 to 129 °C.

**Q.** With `C(=Nc1cccc2ccccc12)=Nc1cccc2ccccc12` as the compound, how does the melting point read?
**A.** Its melting point is 91 °C.

**Q.** With `CC(C)CNC(=O)[C@H](C)C[C@H](O)[C@H](CC1CCCCC1)NC(=O)OC(C)(C)C` as the compound, how does the melting point read?
**A.** The melting point was 125 to 126 °C.

**Q.** For `COc1ccc(NC(=S)NCCCn2ccnc2)cc1OC`, which melting point is on record?
**A.** Its melting point is 160 to 161 °C.

**Q.** For `Cc1nc(C)c(C(C)(O)c2cocc2Br)o1` (stereo not given), which melting point is on record?
**A.** Its melting point is 124 to 125 °C.

**Q.** For `COC(=O)C(C)C(C#Cc1ccccc1)c1ccc(OC)c(OC2CCCC2)c1` (racemic), which melting point is on record?
**A.** Its melting point is 52 to 54 °C.

**Q.** For `COc1cccc(COc2ccc(-c3cccc(NC(Cc4ccccc4)C(=O)O)c3)cc2)c1` (stereo not given), which melting point is on record?
**A.** Its melting point is 159 to 162 °C.

**Q.** For `O=C(O)CN1C(=O)C(=CC=Cc2ccccc2)SC1=S`, which melting point is on record?
**A.** The melting point was greater than 217 °C.

**Q.** For `Cc1ccccc1-c1ccc(C(=O)N2Cc3ccc(C(=O)NCc4csc(-c5ccc(Cl)cc5)n4)n3Cc3ccccc32)cc1C`, which melting point is on record?
**A.** The melting point was 61 to 64 °C.

**Q.** Which melting point does the source give for `O=c1cc(OCc2cccc(Cl)c2)ccn1Cc1ccccc1` here?
**A.** Its melting point is 95.5 to 95.7 °C.

**Q.** For `Brc1c(-c2ccccc2)n[nH]c1Sc1ccccc1`, which melting point is on record?
**A.** The melting point was 121 to 122 °C.

**Q.** Which melting point does the source give for `FC(F)(F)c1cc2ccccc2[nH]1` here?
**A.** The melting point was 102 °C.

**Q.** Which melting point does the source give for `NCc1cccc(CNC(=O)C2Cc3ccccc3N2S(=O)(=O)c2ccc(-c3cccc(C(F)(F)F)c3)cc2)c1` (stereo not given) here?
**A.** Its melting point is 116 °C.

**Q.** With `Cc1ccc(C(=O)Nc2ccccc2C(=O)NCCc2ncc[nH]2)cc1` as the compound, how does the melting point read?
**A.** The melting point was 209 to 214 °C.

**Q.** For `CCCCCCCCCCCCCCCCCCN(OCCCC)C(CCCCCCCCCCCCCCCCC)P(=O)(OCCCC)OCCCC` (stereo not given), which melting point is on record?
**A.** The melting point was 38 to 40 °C.

**Q.** For `Cc1cc2c(cc1N(C)C=O)N1CCN=C1S2`, which melting point is on record?
**A.** The melting point was 164 °C.

**Q.** For `CCOC(=O)c1cn(Cc2ccccc2)c2c(OC)c(F)c(F)c(N)c2c1=O`, which melting point is on record?
**A.** The melting point was 134 to 135 °C.

**Q.** Which melting point does the source give for `CCCNC(=O)C(C)=Cc1ccc2c(c1)c(Cc1ccc(C(=O)OC)cc1OC)cn2CC(=O)N(C)C` here?
**A.** The melting point was 117 to 118 °C.

**Q.** Which melting point does the source give for `CCOC(=O)C(NC(=O)CSC)C(=O)OCC` here?
**A.** Its melting point is 56 to 58 °C.

**Q.** For `CC/C=C\C=C/CCCCCCCCCC=O`, which melting point is on record?
**A.** Its melting point is 7 to 8 °C.

**Q.** For `Cn1cc(-c2ccc3nnc(C(F)(F)c4ccc5nc(NC(=O)C6CC6)cn5n4)n3c2)cn1`, which melting point is on record?
**A.** The melting point was 275 °C.

**Q.** Which melting point does the source give for `O=P(c1ccccc1)(c1ccccc1)C(O)c1c(Cl)cccc1Cl` (stereo not given) here?
**A.** The melting point was 205 to 209 °C.

**Q.** With `CCOc1cc(-c2cc(C(F)F)n3ncc(C(=O)Nc4cccc(S(=O)(=O)NC5CC5)c4)c3n2)ccc1C(F)(F)F` as the compound, how does the melting point read?
**A.** The melting point was 213 °C.

**Q.** With `O=c1c(-c2ccccn2)c(O)c2cccnc2n1-c1ccccc1` as the compound, how does the melting point read?
**A.** Its melting point is 332 to 333 °C.

**Q.** For `OC(CCc1ccccc1)c1c[nH]cn1` (stereo not given), which melting point is on record?
**A.** Its melting point is 144 to 146 °C.
